These molecules were tested against T1, Recombinant human JARID1B/KDM5B (Homo sapiens, UniProt Q9UGL1) (assay: LANCE Ultra TR-FRET JARID1B (KDM5B) demethylase inhibition assay). Conditions: 0.1 uM of test-compounds, FLAG-JARID1B, 500 nM biotinylated H3K4me3 peptide substrate, 30 min at room temperature.
T1 construct: purchased Active Motif 31432; host or cells: Sf9 insect cells
Type: biochemical
Excerpt: FLAG-tagged JARID1B (also known as KDM5B) protein was screened against 49 compounds. For this compound screening, LANCE Ultra time-resolved fluorescence resonance energy transfer (TR-FRET) assay was employed using a europoium (Eu)-labeled antibody that can specifically recognize mono- or dimethylated peptides (H3K4me2/1) and ULight-streptavidin (ULight-SA), a small molecule fluorescent dye. When irradiated at 340 nm, the energy from the Eu donor is transferred to the ULight acceptor dye which, in turn, emits light primarily at 665 nm. The ratio between the intensity of primary emission at 665 nm and that of secondary emission at […] was used to quantify the level of lysine methylation. As JARID1B removes more methyl moieties from tri-methylated substrate peptides (H3K4me3), the ratio increases until the enzyme reaction is terminated. In case, therefore, the compounds disrupt the enzymatic activity completely, the ratio becomes equal to a background value.
Recombinant human JARID1B/KDM5B (accession number NP_006609) of molecular weight 179.9 KDa was expressed in Sf9 insect cells and contains an N-terminal FLAG tag. The enzyme was obtained from Active Motif (Catalog No. 31432). The tri-methylated histone substrate peptide of purity greater than 95% was a synthetic peptide in which the first 21 amino acids correspond to the human histone H3 sequence with three extra amino acids and a biotin motif (GGK-biotin) linked to the C-terminus [sequence: ART-K(Me3)-QTARKSTGGKAPRKQLA-GGK-biotin-OH], (AnaSpec, Fremont, Calif. Catalog. No. ANA-1413). The reference inhibitor compound tranylcypromine (or trans-2-phenylcyclopropylamine hydrochloride, also known as, 2-PCPA) was purchased from Sigma (St. Louis, Mo. Cat. no. P8511). ULight-labeled streptavidin (ULight-SA, Catalog no. TRF0102), Eu-W1024-labeled anti-methyl-Histone H3 Lysine 4 (H3K4me1-2) Antibody (Catalog no. TRF0402), and LANCE detection buffer 10× (Catalog no. CR97-100) were obtained from PerkinElmer (Montreal, Quebec, Canada). The TR-FRET experiments were carried out in white, low-volume 384-wellplates purchased from PerkinElmer (ProxiPlate_-384 Plus, Catalog no. 6008280).
The TR-FRET signal was measured in the presence both of the bio-H3K4me3 peptide and FLAG-JARID1B by detecting any H3K4me2/1 peptide produced in the assay system. Assays using only the bio-H3K4me2 peptide were served as a positive control. Robust enzymatic progressions were observed by using JARID1B at concentrations ranging from 10 to 30 nM. In a typical TR-FRET experiment, JARID1B was pre-incubated with or without 0.1 uM of test-compounds (containing 1% DMSO final) for 5 min. The enzymatic reactions were initiated by the addition of 500 nM biotinylated H3K4me3 peptide substrate plus 500 uM of 2-OG 25 uM Fe(II) and 2 mM ascorbate. The reaction buffer also contained 50 mM Hepes (pH7.5), 0.01% (v/v) Tween 20, and 50 mM NaCl. The reaction mixture was incubated for 30 min at room temperature before reading on an EnVision plate reader (PerkinElmer, Waltham, Mass.).

T1 sequence (Q9UGL1 whole entry): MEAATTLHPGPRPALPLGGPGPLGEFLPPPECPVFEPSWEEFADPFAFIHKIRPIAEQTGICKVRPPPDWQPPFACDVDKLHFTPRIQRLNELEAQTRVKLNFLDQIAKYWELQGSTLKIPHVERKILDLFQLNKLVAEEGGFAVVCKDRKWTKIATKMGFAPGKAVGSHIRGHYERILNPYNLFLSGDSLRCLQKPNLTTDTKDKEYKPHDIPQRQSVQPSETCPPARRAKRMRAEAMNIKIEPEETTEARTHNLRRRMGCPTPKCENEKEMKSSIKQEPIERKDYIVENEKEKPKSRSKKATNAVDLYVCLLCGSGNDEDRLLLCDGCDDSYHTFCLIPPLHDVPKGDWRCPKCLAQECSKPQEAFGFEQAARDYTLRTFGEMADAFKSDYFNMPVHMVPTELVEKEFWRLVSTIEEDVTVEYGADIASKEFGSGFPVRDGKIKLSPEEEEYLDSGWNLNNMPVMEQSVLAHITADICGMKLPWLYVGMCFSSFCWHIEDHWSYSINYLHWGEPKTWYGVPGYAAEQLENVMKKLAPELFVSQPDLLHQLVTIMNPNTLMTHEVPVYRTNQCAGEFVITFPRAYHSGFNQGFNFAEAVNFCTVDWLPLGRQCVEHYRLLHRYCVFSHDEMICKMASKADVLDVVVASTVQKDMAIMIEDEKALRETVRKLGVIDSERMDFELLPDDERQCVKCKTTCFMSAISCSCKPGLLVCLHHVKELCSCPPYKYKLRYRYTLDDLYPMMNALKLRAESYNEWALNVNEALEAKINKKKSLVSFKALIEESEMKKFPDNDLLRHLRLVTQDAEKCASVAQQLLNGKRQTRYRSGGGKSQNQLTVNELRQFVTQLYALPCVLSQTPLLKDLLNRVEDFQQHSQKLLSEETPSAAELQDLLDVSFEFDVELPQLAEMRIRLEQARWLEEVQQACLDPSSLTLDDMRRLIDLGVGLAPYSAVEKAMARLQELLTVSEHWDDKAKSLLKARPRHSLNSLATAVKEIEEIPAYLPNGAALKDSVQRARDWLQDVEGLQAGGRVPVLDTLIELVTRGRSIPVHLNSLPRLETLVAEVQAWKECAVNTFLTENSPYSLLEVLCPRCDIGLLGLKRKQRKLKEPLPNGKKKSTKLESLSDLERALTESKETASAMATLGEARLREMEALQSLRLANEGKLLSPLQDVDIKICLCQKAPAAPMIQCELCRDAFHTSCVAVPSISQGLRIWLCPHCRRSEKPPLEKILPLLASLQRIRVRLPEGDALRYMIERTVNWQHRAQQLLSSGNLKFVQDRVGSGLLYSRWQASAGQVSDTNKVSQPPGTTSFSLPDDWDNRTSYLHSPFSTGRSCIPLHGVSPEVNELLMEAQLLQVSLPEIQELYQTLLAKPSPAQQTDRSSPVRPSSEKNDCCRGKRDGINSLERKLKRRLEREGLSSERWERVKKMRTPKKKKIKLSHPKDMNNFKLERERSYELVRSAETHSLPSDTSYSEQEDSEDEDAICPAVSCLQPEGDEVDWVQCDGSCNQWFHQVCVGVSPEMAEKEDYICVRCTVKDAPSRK

| inhibition at 0.1 µM [%] | Compound |
| --- | --- |
| < 20 | Cc1cccc(-c2cnn(-c3nccc4c(=O)[nH]cnc34)c2)c1 [Compound 1, 8-(4-(m-tolyl)-1H-pyrazol-1-yl)pyrido[3,4-d]pyrimidin-4(3H)-one] |
| < 20 | CN1CCN(Cc2ccc(-c3cnn(-c4nccc5c(=O)[nH]cnc45)c3)cc2)CC1 [Compound 2, 8-(4-(4-((4-methylpiperazin-1-yl)methyl)phenyl)-1H-pyrazol-1-yl)pyrido[3,4-d]pyrimidin-4(3H)-one] |
| < 20 | O=c1[nH]cnc2c(-n3cc(-c4cccc(CO)c4)cn3)nccc12 [Compound 3, 8-(4-(3-(hydroxymethyl)phenyl)-1H-pyrazol-1-yl)pyrido[3,4-d]pyrimidin-4(3H)-one] |
| < 20 | O=c1[nH]cnc2c(-n3cc(-c4ccc(F)cc4)cn3)nccc12 [Compound 4, 8-(4-(4-fluorophenyl)-1H-pyrazol-1-yl)pyrido[3,4-d]pyrimidin-4(3H)-one] |
| < 20 | O=c1[nH]cnc2c(-n3cc(-c4cccc(OCc5ccccc5)c4)cn3)nccc12 [Compound 5, 8-(4-(3-(benzyloxy)phenyl)-1H-pyrazol-1-yl)pyrido[3,4-d]pyrimidin-4(3H)-one] |
| < 20 | CN1CCN(Cc2cccc(-c3cnn(-c4nccc5c(=O)[nH]cnc45)c3)c2)CC1 [Compound 6, 8-(4-(3-((4-methylpiperazin-1-yl)methyl)phenyl)-1H-pyrazol-1-yl)pyrido[3,4-d]pyrimidin-4(3H)-one] |
| < 20 | O=c1[nH]cnc2c(-n3cc(-c4cccc(CCCO)c4)cn3)nccc12 [Compound 7, 8-(4-(3-(3-hydroxypropyl)phenyl)-1H-pyrazol-1-yl)pyrido[3,4-d]pyrimidin-4(3H)-one] |
| < 20 | O=c1[nH]cnc2c(-n3cc(-c4ccccc4CO)cn3)nccc12 [Compound 9, 8-(4-(2-(hydroxymethyl)phenyl)-1H-pyrazol-1-yl)pyrido[3,4-d]pyrimidin-4(3H)-one] |
| < 20 | O=c1[nH]cnc2c(-n3cc(-c4ccccc4Oc4ccccc4)cn3)nccc12 [Compound 10, 8-(4-(2-phenoxyphenyl)-1H-pyrazol-1-yl)pyrido[3,4-d]pyrimidin-4(3H)-one] |
| < 20 | Cn1cc(-c2cnn(-c3nccc4c(=O)[nH]cnc34)c2)cn1 [Compound 11, 8-(1′-methyl-1H,1′H-[4,4′-bipyrazol]-1-yl)pyrido[3,4-d]pyrimidin-4(3H)-one] |
| < 20 | O=c1[nH]cnc2c(-n3cc(-c4cccnc4)cn3)nccc12 [Compound 12, 8-(4-(pyridin-3-yl)-1H-pyrazol-1-yl)pyrido[3,4-d]pyrimidin-4(3H)-one] |
| < 20 | O=c1[nH]cnc2c(-n3cc(-c4cnn(Cc5ccccc5)c4)cn3)nccc12 [Compound 13, 8-(1′-benzyl-1H,1′H-[4,4′-bipyrazol]-1-yl)pyrido[3,4-d]pyrimidin-4(3H)-one] |
| 20 to 50 | Nc1nn(-c2nccc3c(=O)[nH]cnc23)cc1-c1ccc(N2CCNCC2)nc1 [Compound 14, 8-(3-amino-4-(6-(piperazin-1-yl)pyridin-3-yl)-1H-pyrazol-1-yl)pyrido[3,4-d]pyrimidin-4(3H)-one] |
| 20 to 50 | Cn1cc(-c2cn(-c3nccc4c(=O)[nH]cnc34)nc2N)cn1 [Compound 15, 8-(3-amino-1′-methyl-1H,1′H-[4,4'-bipyrazol]-1-yl)pyrido[3,4-d]pyrimidin-4(3H)-one] |
| < 20 | Nc1nn(-c2nccc3c(=O)[nH]cnc23)cc1-c1cccnc1 [Compound 16, 8-(3-amino-4-(pyridin-3-yl)-1H-pyrazol-1-yl)pyrido[3,4-d]pyrimidin-4(3H)-one] |
| 20 to 50 | CN1CCN(c2ccc(-c3cn(-c4nccc5c(=O)[nH]cnc45)nc3N)cc2)CC1 [Compound 17, 8-(3-amino-4-(4-(4-methylpiperazin-1-yl)phenyl)-1H-pyrazol-1-yl)pyrido[3,4-d]pyrimidin-4(3H)-one] |

| inhibition at 0.1 µM [%] | Compound |
| --- | --- |
| 20 to 50 | CC(=O)Nc1ccc(-c2cn(-c3nccc4c(=O)[nH]cnc34)nc2N)cc1 [Compound 18, N-(4-(3-amino-1-(4-oxo-3,4-dihydropyrido[3,4-d]pyrimidin-8-yl)-1H-pyrazol-4-yl)phenyl)acetamide] |
| 20 to 50 | Nc1nn(-c2nccc3c(=O)[nH]cnc23)cc1-c1ccc(CCCO)cc1 [Compound 19, 8-(3-amino-4-(4-(3-hydroxypropyl)phenyl)-1H-pyrazol-1-yl)pyrido[3,4-d]pyrimidin-4(3H)-one] |
| ≥ 50 | Nc1nn(-c2nccc3c(=O)[nH]cnc23)cc1-c1cccc(N2CCNCC2)c1 [Compound 20, 8-(3-amino-4-(3-(piperazin-1-yl)phenyl)-1H-pyrazol-1-yl)pyrido[3,4-d]pyrimidin-4(3H)-one] |
| ≥ 50 | Nc1nn(-c2nccc3c(=O)[nH]cnc23)cc1-c1ccc(C(=O)N2CCOCC2)cc1 [Compound 21, 8-(3-amino-4-(4-(morpholine-4-carbonyl)phenyl)-1H-pyrazol-1-yl)pyrido[3,4-d]pyrimidin-4(3H)-one] |
| ≥ 50 | Nc1nn(-c2nccc3c(=O)[nH]cnc23)cc1-c1cnn(C2CCNCC2)c1 [Compound 22, 8-(3-amino-1′-(piperidin-4-yl)-1H,1′H-[4,4′-bipyrazol]-1-yl)pyrido[3,4-d]pyrimidin-4(3H)-one] |
| ≥ 50 | Nc1nn(-c2nccc3c(=O)[nH]cnc23)cc1-c1ccc(F)cc1 [Compound 23, 8-(3-amino-4-(4-fluorophenyl)-1H-pyrazol-1-yl)pyrido[3,4-d]pyrimidin-4(3H)-one] |
| ≥ 50 | CC(=O)c1ccc(-c2cn(-c3nccc4c(=O)[nH]cnc34)nc2N)cc1 [Compound 24, 8-(4-(4-acetylphenyl)-3-amino-1H-pyrazol-1-yl)pyrido[3,4-d]pyrimidin-4(3H)-one] |
| 20 to 50 | Nc1nn(-c2nccc3c(=O)[nH]cnc23)cc1-c1ccc(O)cc1 [Compound 25, 8-(3-amino-4-(4-hydroxyphenyl)-1H-pyrazol-1-yl)pyrido[3,4-d]pyrimidin-4(3H)-one] |
| 20 to 50 | Nc1nn(-c2nccc3c(=O)[nH]cnc23)cc1-c1cnn(CCO)c1 [Compound 26, 8-(3-amino-1′-(2-hydroxyethyl)-1H,1′H-[4,4′-bipyrazol]-1-yl)pyrido[3,4-d]pyrimidin-4(3H)-one] |
| 20 to 50 | Nc1nn(-c2nccc3c(=O)[nH]cnc23)cc1-c1cnn(CCN2CCCC2)c1 [Compound 27, 8-(3-amino-1′-(2-(pyrrolidin-1-yl)ethyl)-1H,1′H-[4,4′-bipyrazol]-1-yl)pyrido[3,4-d]pyrimidin-4(3H)-one] |
| ≥ 50 | Nc1nn(-c2nccc3c(=O)[nH]cnc23)cc1-c1cnn(Cc2ccccc2)c1 [Compound 28, 8-(3-amino-1′-benzyl-1H,1′H-[4,4′-bipyrazol]-1-yl)pyrido[3,4-d]pyrimidin-4(3H)-one] |
| 20 to 50 | Nc1nn(-c2nccc3c(=O)[nH]cnc23)cc1-c1cnn(CCN2CCOCC2)c1 [Compound 29, 8-(3-amino-1′-(2-morpholinoethyl)-1H,1′H-[4,4′-bipyrazol]-1-yl)pyrido[3,4-d]pyrimidin-4(3H)-one] |
| 20 to 50 | CN1CCN(CCn2cc(-c3cn(-c4nccc5c(=O)[nH]cnc45)nc3N)cn2)CC1 [Compound 30, 8-(3-amino-1′-(2-(4-methylpiperazin-1-yl)ethyl)-1H,1′H-[4,4′-bipyrazol]-1-yl)pyrido[3,4-d]pyrimidin-4(3H)-one] |
| ≥ 50 | Nc1nn(-c2nccc3c(=O)[nH]cnc23)cc1-c1cccc(OCc2ccccc2)c1 [Compound 31, 8-(3-amino-4-(3-(benzyloxy)phenyl)-1H-pyrazol-1-yl)pyrido[3,4-d]pyrimidin-4(3H)-one] |
| 20 to 50 | Nc1nn(-c2nccc3c(=O)[nH]cnc23)cc1-c1cccc(Cl)c1 [Compound 32, 8-(3-amino-4-(3-chlorophenyl)-1H-pyrazol-1-yl)pyrido[3,4-d]pyrimidin-4(3H)-one] |

Reference: patent US20170057955A1, “Pyridopyrimidinone Compounds for Modulating the Catalytic Activity of Histone Lysine Demethylases (KDMs)” (Dong-A Socio Holdings Co., Ltd., priority 2015, published 2017)
